T1: Nluc-FZD6 (Homo sapiens, UniProt O60353)
T1 construct: expressed in transfected cells; host or cells: ΔSMO HEK293A or ΔFZD1–10 HEK293T cells (screen); ΔFZD1–10 HEK293T cells (concentration–response curves)
T1 sequence (O60353 19-706): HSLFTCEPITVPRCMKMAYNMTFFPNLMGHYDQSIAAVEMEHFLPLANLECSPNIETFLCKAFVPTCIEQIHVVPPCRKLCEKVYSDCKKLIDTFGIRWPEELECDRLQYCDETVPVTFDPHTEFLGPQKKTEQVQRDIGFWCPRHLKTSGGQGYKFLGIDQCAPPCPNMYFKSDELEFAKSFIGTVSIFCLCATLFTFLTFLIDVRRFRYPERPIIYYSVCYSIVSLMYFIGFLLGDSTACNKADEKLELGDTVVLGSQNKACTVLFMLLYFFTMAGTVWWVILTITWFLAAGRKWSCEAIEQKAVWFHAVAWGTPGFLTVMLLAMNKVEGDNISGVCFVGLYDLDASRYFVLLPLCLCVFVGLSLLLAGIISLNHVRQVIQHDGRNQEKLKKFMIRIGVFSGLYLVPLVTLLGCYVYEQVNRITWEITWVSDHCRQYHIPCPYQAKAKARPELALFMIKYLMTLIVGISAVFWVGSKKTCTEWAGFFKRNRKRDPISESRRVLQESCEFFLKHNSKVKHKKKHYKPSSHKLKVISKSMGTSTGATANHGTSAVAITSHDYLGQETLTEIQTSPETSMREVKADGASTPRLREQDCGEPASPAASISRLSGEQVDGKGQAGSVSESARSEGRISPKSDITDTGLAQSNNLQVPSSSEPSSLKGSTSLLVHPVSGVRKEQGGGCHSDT

B1: vantictumab: monoclonal antibody binding to five of 10 FZD paralogs (antibody, chains of the INN, looked up, V domains shown)
VH: EVQLVESGGGLVQPGGSLRLSCAASGFTFSHYTLSWVRQAPGKGLEWVSVISGDGSYTYYADSVKGRFTISSDNSKNTLYLQMNSLRAEDTAVYYCARNFIKYVFANWGQGTLVTVSS
VL: DIELTQPPSVSVAPGQTARISCSGDNIGSFYVHWYQQKPGQAPVLVIYDKSNRPSGIPERFSGSNSGNTATLTISGTQAEDEADYYCQSYANTLSLVFGGGTKLTVL

What was measured:
FZD6 = system: FZD6; parameters: method as in PMID 31964872, PMID 34168128; details: ref [18], [24]; cited from earlier work
Nluc-FZD6 = target: T1, Nluc-FZD6; assay: BRET-based BODIPY-cyclopamine competition binding at Nluc-FZD6 in live HEK293 cells; details: for Displacement @ 10 µM compound (Nluc-FZD6) ΔBRET / Displacement %: BODIPY-cyclopamine 300 nM, 10 µM compound
Method: After 24 h, cells were washed once with Hanks' balanced salt solution (HBSS), followed by the addition of 80 μl of HBSS. Next, 10 μl of the competitive ligand, that is, the tested SAG1.3 derivative (either in different concentrations for the concentration–response curves or at a final concentration of 10 μM for the first screens) and 10 μl of the fluorescent tracer BODIPY–cyclopamine (final concentration: 300 nM for the first screens, 200 nM for the concentration–response experiments) were added. All serial dilutions were prepared in HBSS. The cells were incubated for 90 min at 37 °C without additional CO2, after which 10 μl of luciferase substrate diluted in HBSS (furimazine; Promega, N1572, final dilution: 1:1000 for first screening) and coelenterazine h (Biosynth; final concentration: 5 μM for concentration–response experiments) were added to the cells. Following a 10 min incubation period in the dark, the measurement was started on a BMG Labtech ClarioStar or TECAN Spark multimode microplate reader, prewarmed to 37 °C. Nluc bioluminescence was detected between 460 and 490 nm (ClarioStar) or 460 and 500 nm (TECAN Spark). The emission of the fluorescent tracer was detected between 520 and 550 nm (ClarioStar) or between 520 and 560 nm (TECAN Spark).
For each binding experiment, the measurement was repeated five times and averaged for the analysis. ΔBRET values were obtained by subtracting the BRET ratio obtained in wells containing BODIPY–cyclopamine but no competitive ligand (100% value). The BRET values for full displacement were defined using “donor-only” control wells, which contained Nluc-FZDx-transfected cells but no BODIPY–cyclopamine.
For the full concentration–response BRET binding curves in Figure 2, BRET values were normalized (separately for each experiment) to control wells containing BODIPY–cyclopamine but no competitive ligand (100% value) and “donor-only” wells (0% value, described previously). […] Obtained IC50 values were transformed to pIC50 values, which were subsequently averaged between experiments. Displacement curves showing the non-normalized data (ΔBRET values generated as described previously) can be found in Fig. S2.
Shown are mean values and SDs from N independent experiments (N = 2-8) performed in duplicate.
Shown are mean values ± SEM from N independent experiments performed in triplicate.

[1] = parameters: method as in PMID 31338636, PMID 32803633; details: ref [14], [54]; cited from earlier work
[2] = BMG Labtech ClarioStar reader (complete tracer displacement: net BRET = -0.02736)
[3] = TECAN Spark reader (complete tracer displacement: net BRET = -0.03823)
[4] = BODIPY-cyclopamine 200 nM, ΔFZD1-10 HEK293T cells

Molecule | Displacement % (Nluc-FZD6; TECAN Spark reader) [%] | Displacement @ 10 µM compound (Nluc-FZD6) ΔBRET (Nluc-FZD6; [3]) | pIC50 (Nluc-FZD6) mean ± SEM (Nluc-FZD6; [4]) | further results
CN[C@H]1CC[C@H](N(Cc2cccc(-c3ccncc3)c2)C(=O)c2sc3ccccc3c2Cl)CC1.Cl.Cl [SAG1.3, 3-chloro-N-[trans-4-(methylamino)cyclohexyl]-N-[[3-(4-pyridinyl)phenyl]methyl]-benzo[b]thiophene-2-carboxamide dihydrochloride] | 38.7 | -0.0148 | – | Efficacy at FZD6 (FZD6): very low efficacy; Potency at FZD6 (FZD6): double-digit micromolar potency; Displacement @ 10 µM compound (Nluc-FZD6) ΔBRET (Nluc-FZD6; [2]): -0.0099; Displacement % (Nluc-FZD6; ClarioStar reader): 36.1%
O=C(N[C@H]1CC[C@H](N(Cc2cccc(-c3ccncc3)c2)C(=O)c2sc3ccccc3c2Cl)CC1)c1ccco1 [compound 10] | – | – | 5.29 ± 0.02 | Displacement @ 10 µM compound (Nluc-FZD6) ΔBRET (Nluc-FZD6; [2]): -0.0207; Displacement % (Nluc-FZD6; ClarioStar reader): 75.5%
CCC(=O)Nc1cccc(C(=O)N[C@H]2CC[C@H](N(Cc3cccc(-c4ccncc4)c3)C(=O)c3sc4ccccc4c3Cl)CC2)c1 [compound 14, 3-Chloro-N-((1r,4r)-4-(3-propionamidobenzamido)cyclohexyl)-N-(3-(pyridin-4-yl)benzyl)benzo[b]thiophene-2-carboxamide] | 75.9 | -0.0290 | 5.57 ± 0.17 | –
CC(C)C(=O)Nc1cccc(C(=O)N[C@H]2CC[C@H](N(Cc3cccc(-c4ccncc4)c3)C(=O)c3sc4ccccc4c3Cl)CC2)c1 [compound 15, 3-Chloro-N-((1r,4r)-4-(3-isobutyramidobenzamido)cyclohexyl)-N-(3-(pyridin-4-yl)benzyl)benzo[b]thiophene-2-carboxamide] | 70.1 | -0.0268 | 5.13 ± 0.16 | –
CN1CCC(C(=O)Nc2cccc(C(=O)N[C@H]3CC[C@H](N(Cc4cccc(-c5ccncc5)c4)C(=O)c4sc5ccccc5c4Cl)CC3)c2)CC1 [compound 17, N-(3-(((1r,4r)-4-(3-Chloro-N-(3-(pyridin-4-yl)benzyl)benzo[b]thiophene-2-carboxamido)cyclohexyl)-carbamoyl)phenyl)-1-methylpiperidine-4-carboxamide] | 73.6 | -0.0281 | 5.49 ± 0.04 | –
CN1CCN(CC(=O)Nc2cccc(C(=O)N[C@H]3CC[C@H](N(Cc4cccc(-c5ccncc5)c4)C(=O)c4sc5ccccc5c4Cl)CC3)c2)CC1 [compound 18, 3-Chloro-N-((1r,4r)-4-(3-(2-(4-methylpiperazin-1-yl)acetamido)benzamido)cyclohexyl)-N-(3-(pyridin-4-yl)benzyl)benzo[b]thiophene-2-carboxamide] | 81.1 | -0.0310 | 5.50 ± 0.04 | –
O=C(CN1CCOCC1)Nc1cccc(C(=O)N[C@H]2CC[C@H](N(Cc3cccc(-c4ccncc4)c3)C(=O)c3sc4ccccc4c3Cl)CC2)c1 [compound 19, 3-Chloro-N-((1r,4r)-4-(3-(2-morpholinoacetamido)benzamido)cyclohexyl)-N-(3-(pyridin-4-yl)benzyl)benzo[b]thiophene-2-carboxamide] | 87.6 | -0.0335 | 5.71 ± 0.04 | –
O=C(N[C@H]1CC[C@H](N(Cc2cccc(-c3ccncc3)c2)C(=O)c2sc3ccccc3c2Cl)CC1)c1ccncc1Cl [compound 21, 3-Chloro-N-((1r,4r)-4-(3-chloro-N-(3-(pyridin-4-yl)benzyl)benzo[b]thiophene-2-carboxamido)cyclohexyl)isonicotinamide] | 78.2 | -0.0299 | 5.44 ± 0.05 | –
Nc1ccc(C(=O)N[C@H]2CC[C@H](N(Cc3cccc(-c4ccncc4)c3)C(=O)c3sc4ccccc4c3Cl)CC2)nn1 [compound 23, 6-Amino-N-((1r,4r)-4-(3-chloro-N-(3-(pyridin-4-yl)benzyl)benzo[b]thiophene-2-carboxamido)cyclohexyl)pyridazine-3-carboxamide] | 85.8 | -0.0328 | 5.54 ± 0.03 | –
O=C(NC1CCC(N(Cc2ccc(-c3cccnc3)cc2)C(=O)c2sc3ccccc3c2Cl)CC1)c1ccco1 (stereo not shown) [compound 52, N-(4-(3-Chloro-N-(4-(pyridin-3-yl)benzyl)benzo[b]thiophene-2-carboxamido)cyclohexyl)furan-2-carboxamide] | – | – | – | Displacement @ 10 µM compound (Nluc-FZD6) ΔBRET (Nluc-FZD6; [2]): -0.0194; Displacement % (Nluc-FZD6; ClarioStar reader): 70.9%; IC50 (Nluc-FZD6; BODIPY-cyclopamine 200 nM, ΔFZD1-10 HEK293T cells, read-out: pIC50 (Nluc-FZD6) mean ± SEM (converted)): 8.71 µM
B1 | – | – | – | Reason for dismissal in phase Ib clinical trials [1]: bone toxicity

Reference: article PMC12605013, “SAG1.3-derived Frizzled-targeting small-molecule compounds” (The Journal of Biological Chemistry, 2025)
